The test system of data set [1] is Nitric oxide synthetase (NOS). The experiment in a line: NOS activating activity in HUVEC under H2O2 stress. It counts as cell-based, Human. The settings on record: HUVEC under H2O2 induced oxidative stress. The protocol:
In vitro Nitric oxide synthetase (NOS) activating activity. Human Umbilical Vascular Endothelial Cells (HUVECs) were plated at a density of 2×10^5 cells per well and were treated with or without H2O2 (200 μM) and compounds at different concentrations. NOS knock-down samples (NOSi) were cells exposed to a competitive NOS inhibitor L-NNA at 50 μM. After 24-hour-treatment, total NOS activity from treated cells was quantified using OxiSelect™ Intracellular Nitric Oxide (NO) Assay Kit where NOS activity correlates to fluorescent intensity^5.

For data set [2], the system named is HUVEC. Description: HUVEC viability / cytoprotection under H2O2 induced oxidative stress (MTT). It counts as cell-based, Human.
Data set [3] has as its system HUVEC. Description: in vitro angiogenesis / tube formation under oxidative stress. It counts as cell-based, Human. The protocol:
In vitro angiogenesis studies. Cultrex reduced growth factor basement membrane extracted gel (Cat. 3433-005-01, R&D Systems, Inc.) was coated on bottom of μ-Slide angiogenesis wells (Cat. 81506, iBidi GmbH Co.). ECs at early passages (passage 6th or earlier) were then seeded on gel at a seeding density of 25,000 cells/cm^2. Next, cells were treated with treatment groups (SA-2, SA-10, SA-10 NPs, VEGF) under stress condition (200 μM H2O2). After 12 hours of incubation, formation of new microtubes were visualized and captured on phase contrast microscopes. Images were then stacked and processed with Angiogenesis analyzer on ImageJ.

In data set [4] the test system is primary microglia isolated from rat retina. The experiment in a line: TII induced nitric oxide in primary microglia (Greiss assay). The settings on record: 10 μM, 24 h. In kind it is cell-based.
For data set [5] the test system is unchanged. The experiment in a line: TII induced cell death in primary microglia (LDH assay). The settings on record: 10 μM, 24 h. It counts as cell-based.
Data set [6] deals with ischemic hindlimb mice. The experiment in a line: hind limb ischemia (PAD) model: blood perfusion and treadmill. It counts as in vivo, mouse. The text has this: Parameters: Incline 30 degrees; max endurance test at […]; stimulation: 1.5 mA. Stimulation and distance count were stopped when a mouse met one of the following conditions: 1) total stimulation time 30 seconds; or 2) single stimulation time is more than 10 seconds.
Animal model. Since PAD happens commonly in old people, the inventor used old mice for ischemic hindlimb animal models. To this, male and female Balb/c mice at age of 30-40 weeks old were chosen for these in vivo studies. Animals were housed in individual cage at normal diet before performing ligation. In brief, animals were anesthetized with 2% isoflurane, and prior to incision, analgesic SR Buprenorphine was injected subcutaneously (at dose of 1 mg/kg for mice). Upon opening the incision on animals left legs, the membrane covering the inguinal fat tissue was carefully separated to expose the neurovascular bundle underneath and veins and nerves were then carefully separated from arteries. Next, three pair of 1 mm-distal ties (using 6-0 or 7-0 nonabsorbable suture) followed by transection (by spring scissor) were made on femoral artery, proximal caudal femoral artery and superficial caudal epigastric artery. Finally, the incision was closed by absorbable 5-0 or 6-0 sutures. The animal model appeared limping similar to literature report^37 from the time post-treatment until endpoint study.
Therapeutic groups of study and sample size. After 3 days of ligation, mice were randomly assigned into 4 groups: Sham, free SA-10, SA-10 NPs and blank PLGA NPs. Sham groups were injected with saline without any therapeutic treatment. Based on study of biodistribution, the route of administration was intramuscular (IM) injection. To determine sample size, a power of analysis was processed on SigmaPlot v.13 software. Significant difference would be considered when P<0.05. Based on the inventor's own experience and literature reports, the inventor selected power with α<0.05 as 0.8. Calculation yielded sample size as n=5.
In vivo blood perfusion and physical test. Animals under treatments were measured for their recovery physiologically and physically. In the former study, animals were anesthetized with 1.5-2% isoflurane, and blood perfusion was measured with Laser Speckle Contrast Imaging (PeriCam PSI NR, Perimed AB). Briefly, hemoglobin in shallow vessels and capillaries responded to exciting lasers in term of color pigments. The relative blood perfusion was calculated by device software (PIMSoft), and it correlated to typical pigments. […]
When the animal was not running for total of 30 seconds under stimulation, the run of animals was terminated from recording. Physical recovery of animals was then quantified as covered distance until exhaustion, which was obtained from the treadmill software.

Data set [7] concerns primary microglia isolated from rat retina. Description: TII induced ROS in primary microglia (DCFDA assay).

One molecule from patent publication US12234228B2, “Nitric oxide donor and anti-oxidant compounds” (University of North Texas Health Science Center, priority 2018, dated 2025) can be followed below.

“Also recorded” adds a separate entry of the source.

With `Nc1c[n+](C2CCS(=O)(=O)CC2)no1` [SA-10], the eNOS activity entry in data set [1] is recorded as “induced eNOS signals”. In addition, the “EC protection, longer protection study” value in data set [2] (2-day stress with 400 μM H2O2) is “protected over the course of 2-day stress”. Moreover, in data set [2] (ECs under H2O2 stress), the “effective range of concentration to protect ECs” value is listed as “up to 100 μM”. For the same molecule, the cytoprotective activity entry in data set [2] (HUVEC, H2O2 induced oxidative stress, different concentrations) is “potent cytoprotective activity”. Further, in data set [3] (HUVEC under oxidative stress (200 μM H2O2)), the “angiogenesis and new tube formation” value was “induce angiogenesis and new tube formation; also recorded: significantly induced tube formation”. Also, the “angiogenesis and new tube formation (FIG. 5)” value in data set [3] (SA-9 0.5 μM, SA-10 0.005 μM, H2O2 200 μM, low serum media) is “induce angiogenesis and new tube formation”. In addition, in data set [4], the “TII induced nitric oxide (nitrite) production” value is listed as “decrease”. For the same molecule, the “TII induced cell death (LDH release)” value in data set [5] is listed as “decrease the cell death”. Also, the blood perfusion indexes entry in data set [6] (0.125 mg/kg drug, IM, ischemic versus normal limb) was “performed better than sham and blank vehicle at the beginning”. In data set [6] (0.125 mg/kg drug, IM, treadmill distance until exhaustion), the endurance run result was “performed better than sham and blank vehicle at the beginning”. The “recovery in treadmill experiment” value in data set [6] (IM injection, day 0 and day 7, vs. sham and VEGF) is reported as “good recovery effects”. Also, the “new blood vessel formation and blood circulation” value in data set [6] (mouse leg after artery occlusion, assessed by treadmill) is “increase new blood vessel formation and blood circulation”. In addition, the “TII induced ROS production” value in data set [7] (10 μM, 24 h, TII = TNF-α, IL-1β, IFN-γ) is recorded as “decrease”. Further, the “activation of microglia by the compound itself” value in data set [7] (rat primary microglia, without TII) is reported as “did not activate”.
